The text below walks through data of PubChem BioAssay AID2640 (Southern Research Specialized Biocontainment Screening …, 2010).

Structures are written as SMILES. The source made the active and inactive calls.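 How the source made its calls: active means wild-type drop in polymyxin IC50 at top compound dose over twice that in the PhoP-lacking mutant; inactive means the rest.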

Experiment [1] can be described thus: compound effect on Typhimurium polymyxin resistance – wild type vs phoP- strains, OD600 (AID 2640). The note with it: S. Typhimurium polymyxin resistance, OD600 growth, 24 h; for IC50 shift difference / IC50 shift: measured here: polymyxin IC50 shift, at 150 µM; for IC50 shift difference: WT minus phoP-.
The test system of experiment [2] is S. Typhimurium polymyxin resistance, OD600 growth, 24 h. The experiment is described as above.
[3] abbreviates: WT strain, stronger effect = higher value.
Setting [4] is: phoP- strain, stronger effect = lower value.
Setting [5] is: WT polymyxin IC50 at 150 uM, stronger effect = lower value.
[6] abbreviates: phoP- polymyxin IC50 at 150 uM, stronger effect = lower value.

The term IC50 denotes the concentration needed to halve the response being measured. Turning to `Cc1ccc(Nc2cc(C)c3c(O)cccc3n2)cc1C`, the outcome in experiment [1] was inactive. For the same molecule, the IC50 shift difference in experiment [1] (stronger effect = higher value) came to 2.63. The values for the IC50 shift in experiment [1] (setting [3]) and in experiment [1] (setting [4]) were 2.54 and -0.09, respectively. Also, the IC50 is 2.25 µM in experiment [2] (setting [5]) and 0.088 µM in experiment [2] (setting [6]).

`CCn1cc(C(=O)O)c(=O)c2cc(F)c(N3CCN(C(=S)NC(=O)c4ccccc4Cl)CC3)cc21`: in experiment [1] (stronger effect = higher value), the IC50 shift difference was 10.3. Moreover, the IC50 shift in experiment [1] (setting [3]) is 9.6; in experiment [1] (setting [4]), -0.66. For the same molecule, the results for the IC50 in experiment [2], in experiment [2] (setting [5]) and in experiment [2] (setting [6]) were 20 µM, 0.138 µM and 0.706 µM, respectively.

Turning to `COc1c(N2CCN(C(=S)NCc3ccccc3)C(C)C2)c(F)cc2c(=O)c(C(=O)O)cn(C3CC3)c12` (centres undefined), the IC50 shift difference in experiment [1] (stronger effect = higher value) turned out to be 6.39. In addition, the IC50 shift amounted to 9.16 in experiment [1] (setting [3]) and 2.76 in experiment [1] (setting [4]). In addition, the IC50 was 10 µM in experiment [2] and 0.677 µM in experiment [2] (setting [6]).

Consider `S=C(NCc1ccc(Cl)cc1)Nc1ccncc1`, for which the IC50 shift difference in experiment [1] (stronger effect = higher value) is 20.4. The values for the IC50 shift in experiment [1] (setting [3]) and in experiment [1] (setting [4]) were 3.93 and -16.4, respectively. The IC50 in experiment [2] is 30 µM; in experiment [2] (setting [5]), 3.59 µM; in experiment [2] (setting [6]), 24 µM.

For `O=C1C2=C(Nc3ccccc3SC2c2ccco2)c2ccccc21` (centres undefined), in experiment [1] (stronger effect = higher value), the IC50 shift difference is 14.6. The IC50 shift in experiment [1] (setting [3]) is 18.2; in experiment [1] (setting [4]), 3.6. Further, the concentration for half-maximal inhibition (IC50) in experiment [2] is 30 µM; in experiment [2] (setting [5]), 0.04 µM.

In the case of `O=C(Nc1ccc(Cl)cc1)N1CCCN(Cc2ccccc2F)C1`, in experiment [1] (stronger effect = higher value), the IC50 shift difference is 27.6. Also, the IC50 shift in experiment [1] (setting [3]) is 5.14; in experiment [1] (setting [4]) it was -22.4. The concentration for half-maximal inhibition (IC50) was 30 µM in experiment [2], 0.62 µM in experiment [2] (setting [5]) and 26.9 µM in experiment [2] (setting [6]).
